{
  "source": "paper PMC8715118",
  "about": "“Assessing potentiation of the (α4)3(β2)2 nicotinic acetylcholine receptor by the allosteric agonist CMPI” (The Journal of Biological Chemistry, 2021)",
  "type_in_all_cases": "cell-based",
  "key": {"(α4)3(β2)2 nAChR": {"target": "T1, (α4)3(β2)2 nAChR (Homo sapiens, UniProt P17787+P43681)", "T1 construct": "expressed in transfected cells; host or cells: Xenopus laevis oocytes injected with cRNA, 8:1 α4:β2", "T1 sequence (P43681 27-627)": "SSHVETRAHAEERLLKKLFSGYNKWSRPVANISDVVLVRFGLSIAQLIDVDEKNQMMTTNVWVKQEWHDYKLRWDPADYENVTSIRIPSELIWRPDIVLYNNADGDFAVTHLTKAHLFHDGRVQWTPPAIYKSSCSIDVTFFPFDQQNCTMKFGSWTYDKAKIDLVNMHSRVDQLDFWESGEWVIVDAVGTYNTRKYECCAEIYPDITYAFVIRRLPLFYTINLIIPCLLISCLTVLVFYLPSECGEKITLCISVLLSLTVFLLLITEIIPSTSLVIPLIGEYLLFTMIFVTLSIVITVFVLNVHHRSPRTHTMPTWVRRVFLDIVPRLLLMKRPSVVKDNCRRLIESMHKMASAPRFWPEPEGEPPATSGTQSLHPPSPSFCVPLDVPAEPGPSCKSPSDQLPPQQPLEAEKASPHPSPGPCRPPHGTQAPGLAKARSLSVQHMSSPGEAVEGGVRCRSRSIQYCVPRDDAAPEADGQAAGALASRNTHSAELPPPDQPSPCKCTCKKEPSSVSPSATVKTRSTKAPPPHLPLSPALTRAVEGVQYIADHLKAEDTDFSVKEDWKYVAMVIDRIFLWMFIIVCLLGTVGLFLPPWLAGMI", "T1 sequence (P17787 26-502)": "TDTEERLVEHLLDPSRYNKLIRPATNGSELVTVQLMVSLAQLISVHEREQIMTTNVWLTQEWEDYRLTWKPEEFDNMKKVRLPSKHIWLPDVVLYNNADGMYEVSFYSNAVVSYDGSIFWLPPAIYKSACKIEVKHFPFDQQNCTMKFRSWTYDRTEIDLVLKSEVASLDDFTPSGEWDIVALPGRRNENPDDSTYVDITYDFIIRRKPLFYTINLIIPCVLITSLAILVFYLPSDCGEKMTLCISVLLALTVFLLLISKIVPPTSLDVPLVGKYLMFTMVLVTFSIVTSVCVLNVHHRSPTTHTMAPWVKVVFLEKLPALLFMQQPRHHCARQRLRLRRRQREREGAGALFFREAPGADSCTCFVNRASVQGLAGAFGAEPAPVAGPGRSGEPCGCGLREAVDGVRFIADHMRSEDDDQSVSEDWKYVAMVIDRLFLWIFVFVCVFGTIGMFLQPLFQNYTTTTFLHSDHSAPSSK", "experiment": "Two-electrode voltage-clamp whole-cell currents, Xenopus oocytes expressing WT (α4)3(β2)2 nAChR", "conditions": "for EC50: read-out: potentiation EC50", "procedure": "(§1) Oocytes-positive female Xenopus laevis were purchased from NASCO, and all procedures were performed according to an animal use protocol approved by the Institutional Animals Care and Use Committee of The University of Texas Health Science Center at Tyler. Ovarian lobules were surgically harvested, treated with collagenase type 2, and Stage V and VI oocytes were visually selected and maintained at 18 °C in modified ND96-gentamicin buffer (96 mM NaCl, 2 mM KCl, 1.8 mM CaCl2, 1 mM MgCl2, 5 mM Hepes, and 50 μg/ml gentamicin, pH 7.6).\n(§2) pSP64 Poly(A) plasmids with cDNA encoding for human α4 or β2 nAChR subunit were used to prepare cRNA transcripts suitable for oocyte expression. The plasmids were linearized with AseI (hα4) and PvuII (hβ2), then cRNA transcripts were prepared in vitro using mMESSAGE mMACHINE high yield-capped RNA transcription kits (Ambion, Thermo Fisher Scientific), purified on NucAway Spin column (Invitrogen, Thermo Fisher Scientific), and stored at −80 °C until used. Point mutations within the plasmid encoding the α4 nAChR subunit were introduced using QuikChange II Site-Directed Mutagenesis Kit (Agilent Technologies), as described previously ([28]). To generate amino acid substitutions (K64T, E66I, H116V, H116L, and H116A), two custom-designed complementary oligos containing the desired mutation were used (Integrated DNA Technologies). The forward primers were as the following with the codon for mutated amino acids are underlined and nucleotide(s) changes are bolded and italicized:\n(§3) The oocytes were injected with 10 to 50 ng of a cRNA mix containing α4 (WT or mutant) and β2 RNAs at ratios of 8:1(α4:β) or 1:8 (α4:β2) to bias expression toward (α4)3(β2)2 or (α4)2(β2)3 nAChRs, respectively. The injection of oocytes with RNAs mixture containing four folds or higher α4 RNA than β2 RNA have been established to express receptor population that is made up of three α4 and two β2 subunits ([9], [12], [28], [43], [44], [45]).\n(§4) 24 to 72 h after cRNA injection, Xenopus oocytes were placed in a custom-made recording chamber that is connected to an eight-channel automated perfusion system (Warner Instruments) and perfused with recording buffer (100 mM NaCl, 2 mM KCl, 1 mM CaCl2, 0.8 mM MgCl2, 1 mM EGTA, and 10 mM Hepes, pH 7.5). Unless otherwise specified in figure legends, each recording run included several drug applications (10 s of an agonist with or without CMPI or NS9283) separated by 3 to 4 min buffer wash intervals. Between recording runs, the oocytes were washed with recording buffer for at last 5 min. The oocytes were voltage-clamped at −50 mV using Oocyte Clamp OC-725B (Warner Instruments). The currents were digitized using Digidata 1550A (Axon Instruments, Molecular Devices), and the peak currents were quantified using pCLAMP 10 (Axon Instruments), then normalized and analyzed using Excel 2010 (Microsoft) and SigmaPlot 11.0 (Systat Software). For NS9283 and CMPI potentiation of agonist-induced responses, the peak currents were normalized to current elicited by agonist alone applied within the same recording run. For the effect of coapplication of 1 μM NS9283 or CMPI on agonist concentration-response curve, the peak currents were normalized to current elicited by saturating concentration of agonist applied within the same recording run. […] I0 = 100 for NS9283 and CMPI potentiation of agonist-induced responses and I0 = 0 for agonist concentration-response experiments. The best-fit values for Imax and EC50 ± SD are presented."}, "(α4H116A)3(β2)2 nAChR": {"target": "T2, (α4H116A)3(β2)2 nAChR (Homo sapiens, UniProt P17787+P43681, H142A)", "T2 construct": "expressed in transfected cells; host or cells: Xenopus laevis oocytes injected with cRNA, 8:1 α4:β2", "T2 sequence (P43681 27-627 H142A)": "as the sequence (P43681 27-627) above, with H116A counted along it", "T2 sequence (P17787 26-502)": "as the sequence (P17787 26-502) above", "experiment": "Two-electrode voltage-clamp, oocytes expressing (α4H116A)3(β2)2 nAChR", "conditions": "1 μM modulator", "procedure": "as §1, §2, §3, §4"}, "(α4K64T)3(β2)2 nAChR": {"target": "T3, (α4K64T)3(β2)2 nAChR (Homo sapiens, UniProt P17787+P43681, K90T)", "T3 construct": "expressed in transfected cells; host or cells: Xenopus laevis oocytes injected with cRNA, 8:1 α4:β2", "T3 sequence (P43681 27-627 K90T)": "as the sequence (P43681 27-627) above, with K64T counted along it", "T3 sequence (P17787 26-502)": "as the sequence (P17787 26-502) above", "experiment": "Two-electrode voltage-clamp, oocytes expressing (α4K64T)3(β2)2 nAChR", "procedure": "as §1, §2, §3\n(§5) 24 to 72 h after cRNA injection, Xenopus oocytes were placed in a custom-made recording chamber that is connected to an eight-channel automated perfusion system (Warner Instruments) and perfused with recording buffer (100 mM NaCl, 2 mM KCl, 1 mM CaCl2, 0.8 mM MgCl2, 1 mM EGTA, and 10 mM Hepes, pH 7.5). Unless otherwise specified in figure legends, each recording run included several drug applications (10 s of an agonist with or without CMPI or NS9283) separated by 3 to 4 min buffer wash intervals. Between recording runs, the oocytes were washed with recording buffer for at last 5 min. […] The currents were digitized using Digidata 1550A (Axon Instruments, Molecular Devices), and the peak currents were quantified using pCLAMP 10 (Axon Instruments), then normalized and analyzed using Excel 2010 (Microsoft) and SigmaPlot 11.0 (Systat Software). […]"}, "(α4E66I)3(β2)2 nAChR": {"target": "T4, (α4E66I)3(β2)2 nAChR (Homo sapiens, UniProt P17787+P43681, E92I)", "T4 construct": "expressed in transfected cells; host or cells: Xenopus laevis oocytes injected with cRNA, 8:1 α4:β2", "T4 sequence (P43681 27-627 E92I)": "as the sequence (P43681 27-627) above, with E66I counted along it", "T4 sequence (P17787 26-502)": "as the sequence (P17787 26-502) above", "experiment": "Two-electrode voltage-clamp, oocytes expressing (α4E66I)3(β2)2 nAChR", "procedure": "as §1, §2, §3, §5"}, "(α4H116L)3(β2)2 nAChR": {"target": "T5, (α4H116L)3(β2)2 nAChR (Homo sapiens, UniProt P17787+P43681, H142L)", "T5 construct": "expressed in transfected cells; host or cells: Xenopus laevis oocytes injected with cRNA, 8:1 α4:β2", "T5 sequence (P43681 27-627 H142L)": "as the sequence (P43681 27-627) above, with H116L counted along it", "T5 sequence (P17787 26-502)": "as the sequence (P17787 26-502) above", "experiment": "Two-electrode voltage-clamp, oocytes expressing (α4H116L)3(β2)2 nAChR", "procedure": "as §1, §2, §3, §5"}, "(α4H116V)3(β2)2 nAChR": {"target": "T6, (α4H116V)3(β2)2 nAChR (Homo sapiens, UniProt P17787+P43681, H142V)", "T6 construct": "expressed in transfected cells; host or cells: Xenopus laevis oocytes injected with cRNA, 8:1 α4:β2", "T6 sequence (P43681 27-627 H142V)": "as the sequence (P43681 27-627) above, with H116V counted along it", "T6 sequence (P17787 26-502)": "as the sequence (P17787 26-502) above", "experiment": "Two-electrode voltage-clamp, oocytes expressing (α4H116V)3(β2)2 nAChR", "procedure": "as §1, §2, §3, §5"}},
  "note": "Several values for one entry are separate records, joined by “and”; a condition that tells them apart may be missing. Identical values can stand only once. Like-named read-outs stand apart in the source and are kept apart here.",
  "data": [
    {"smiles": "N#Cc1cccc(-c2nc(-c3cccnc3)no2)c1", "note": "[NS9283, 3-[3-(3-pyridinyl)-1,2,4-oxadiazol-5-yl]benzonitrile]", "values": [
      {"measurement": "maximal potentiation", "setting": "(α4)3(β2)2 nAChR; 1 μM TC-2559", "result": "1800 ± 307", "unit": "%"},
      {"measurement": "effect on responses to agonists at subsaturating concentrations", "setting": "(α4)3(β2)2 nAChR; 1 μM modulator, ACh, nicotine, cytisine, TC-2559, p < 0.001", "result": "potentiated"},
      {"measurement": "effect on responses to saturating concentrations of the tested agonists", "setting": "(α4)3(β2)2 nAChR; 1 μM modulator, except for TC-2559", "result": "did not potentiate"},
      {"measurement": "maximal potentiation", "setting": "(α4)3(β2)2 nAChR; 10 μM TC-2559", "result": "1522 ± 41", "unit": "%"},
      {"measurement": "potentiation fold (Ave ± SD), agonist + 1 μM modulator / agonist alone", "setting": "(α4)3(β2)2 nAChR; ACh (1 mM), 1 μM modulator", "result": "1.00 ± 0.04"},
      {"measurement": "potentiation fold (Ave ± SD), agonist + 1 μM modulator / agonist alone", "setting": "(α4)3(β2)2 nAChR; TC 2559 (30 μM), 1 μM modulator", "result": "5.05 and 5.05 ± 1.66"},
      {"measurement": "EC50", "setting": "(α4)3(β2)2 nAChR; responses induced by 1 μM TC-2559", "result": "1900 ± 200", "unit": "nM"},
      {"measurement": "EC50", "setting": "(α4)3(β2)2 nAChR; responses induced by 10 μM TC-2559", "result": "1800 ± 120", "unit": "nM"},
      {"measurement": "potentiation fold (Ave ± SD), agonist + 1 μM modulator / agonist alone", "setting": "(α4H116A)3(β2)2 nAChR; ACh (1 mM)", "result": "0.98 ± 0.03"},
      {"measurement": "potentiation fold (Ave ± SD), agonist + 1 μM modulator / agonist alone", "setting": "(α4H116A)3(β2)2 nAChR; TC 2559 (30 μM)", "result": "0.93 ± 0.12"},
      {"measurement": "potentiation fold (Ave ± SD), agonist + 1 μM modulator / agonist alone", "setting": "(α4K64T)3(β2)2 nAChR; ACh (1 mM)", "result": "1.10 ± 0.08"},
      {"measurement": "potentiation fold (Ave ± SD), agonist + 1 μM modulator / agonist alone", "setting": "(α4K64T)3(β2)2 nAChR; TC 2559 (30 μM)", "result": "4.72 ± 2.27"},
      {"measurement": "potentiation fold (Ave ± SD), agonist + 1 μM modulator / agonist alone", "setting": "(α4E66I)3(β2)2 nAChR; ACh (1 mM)", "result": "0.95 ± 0.07"},
      {"measurement": "potentiation fold (Ave ± SD), agonist + 1 μM modulator / agonist alone", "setting": "(α4E66I)3(β2)2 nAChR; TC 2559 (30 μM)", "result": "2.68 ± 1.08"},
      {"measurement": "potentiation fold (Ave ± SD), agonist + 1 μM modulator / agonist alone", "setting": "(α4H116L)3(β2)2 nAChR; ACh (1 mM)", "result": "0.95 ± 0.03"},
      {"measurement": "potentiation fold (Ave ± SD), agonist + 1 μM modulator / agonist alone", "setting": "(α4H116L)3(β2)2 nAChR; TC 2559 (30 μM)", "result": "1.18 ± 0.17"},
      {"measurement": "potentiation fold (Ave ± SD), agonist + 1 μM modulator / agonist alone", "setting": "(α4H116V)3(β2)2 nAChR; ACh (1 mM)", "result": "0.90 ± 0.02"},
      {"measurement": "potentiation fold (Ave ± SD), agonist + 1 μM modulator / agonist alone", "setting": "(α4H116V)3(β2)2 nAChR; TC 2559 (30 μM)", "result": "0.87 ± 0.06"}
    ]}
  ]
}
